For one data set, the target named is alkaline phosphatase. As to the kind of experiment: Counter assay without nSMase2 and SM, phosphorylcholine as substrate (enzyme-coupled detection reactions). It counts as biochemical. As to conditions: no nSMase2, no SM; phosphorylcholine 2 μM as substrate.
Another data set deals with T1, acid sphingomyelinase (Homo sapiens, UniProt P17405).
T1 sequence (P17405 47-631): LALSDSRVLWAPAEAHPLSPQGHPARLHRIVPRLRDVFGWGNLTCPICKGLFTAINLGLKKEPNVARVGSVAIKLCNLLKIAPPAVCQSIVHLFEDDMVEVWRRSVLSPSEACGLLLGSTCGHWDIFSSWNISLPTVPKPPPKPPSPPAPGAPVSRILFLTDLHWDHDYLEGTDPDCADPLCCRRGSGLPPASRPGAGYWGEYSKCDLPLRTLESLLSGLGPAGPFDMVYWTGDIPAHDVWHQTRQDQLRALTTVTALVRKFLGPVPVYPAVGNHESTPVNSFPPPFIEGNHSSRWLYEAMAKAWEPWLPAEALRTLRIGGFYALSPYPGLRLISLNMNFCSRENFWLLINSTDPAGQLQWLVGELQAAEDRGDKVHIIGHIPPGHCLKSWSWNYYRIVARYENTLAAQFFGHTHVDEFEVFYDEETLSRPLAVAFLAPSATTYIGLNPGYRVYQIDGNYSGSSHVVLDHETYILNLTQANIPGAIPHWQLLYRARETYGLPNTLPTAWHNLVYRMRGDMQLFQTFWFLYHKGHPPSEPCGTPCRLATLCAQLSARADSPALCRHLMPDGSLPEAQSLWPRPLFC
Briefly: Acid sphingomyelinase inhibition (results not shown). It counts as biochemical.

The nature of data set [1]: Metabolic stability in human liver microsomes with NADPH. It counts as in vitro ADME. As to conditions: pH 7.4, 1 μM compound, read-out: percent remaining. As for the experimental part: One potential liability when using chemical probes in vivo is lack of metabolic stability which structurally inactivates the compound before it can reach its molecular target. […] Percent of drug remaining over time was determined by liquid chromatography–tandem mass spectrometry analysis (LC/MS/MS).
Metabolic stability assay was conducted in mouse or human liver microsomes as we have described previously with minor modifications. Briefly, the reaction was carried out using potassium phosphate buffer (100 mM, pH 7.4), in the presence of an NADPH regenerating system (compound final concentration was 1 μM; 0.2 mg/mL microsomes). Compound disappearance was monitored over time using a liquid chromatography and tandem mass spectrometry (LC/MS/MS) method. Chromatographic analysis was performed using an Accela ultra high-performance system consisting of an analytical pump and an autosampler coupled with a TSQ Vantage mass spectrometer (Thermo Fisher Scientific Inc., Waltham, MA). […] The mobile phase consisted of 0.1% formic acid in acetonitrile and 0.1% formic acid in water with gradient elution.
(Liver microsomes are vesicles of endoplasmic reticulum, rich in cytochrome P450 enzymes.)

Another data set relates to primary astrocytes. As to the kind of experiment: Inhibition of EV release from primary astrocytes (FBS withdrawal, nanoparticle tracking). It counts as cell-based, rat. As to conditions: 2 h treatment, dose range of concentrations. As for the experimental part:
(§1) Independent laboratories have shown that pharmacological and genetic inhibition of nSMase2 blocks EV secretion from glial cells. […] Two hours after treatment, EVs were isolated from the media and quantified by nanoparticle tracking analysis. […] Cells were fixed and immunofluorescence labeling for GFAP was performed.
(§2) Media was collected after 2 h incubation and centrifuged at 2700 × g for 15 min at 4 °C. Supernatant was collected and the number of extracellular vesicles (EVs) was quantified using ZetaView Nanoparticle Tracker. The mean concentration of EVs/mL (±SEM) was calculated from 4 replicate experiments. […] Astrocytes grown in complete medium were used as no treatment control. Cells were fixed and stained with anti-GFAP antibody (1:500, Sigma). Fluorescence intensity was measured using Image J. (C) Quantitation of fluorescence in (B). Bar graph represents background corrected mean fluorescence intensity measured from 100 astrocytes per condition. Error bars represent standard error of mean. One-way ANOVA followed by Tukey’s posthoc test was performed.
Potential inhibition of test compounds on EV release from primary astrocytes was carried out as previously described (Dickens et al., 2017). Briefly, rat primary astrocytes were seeded onto 6-well plates at a density of 20,000 cells/well. Twenty-four hours after seeding, astrocytes were washed with PBS and the medium changed to media without FBS. Absence of FBS mimics a trophic factor withdrawal stimulus causing EVs to be released from astrocytes via an nSMase2-dependent pathway. […] The supernatant was collected and the number of EVs quantified using ZetaView Nanoparticle Tracker (Particle Metrix GmBH, Meerbusch, Germany) and the corresponding ZetaVeiw software (8.03.04.01). Nanosphere size standard 100 nm (Thermo Scientific) was used to calibrate the instrument prior to sample readings. […] For each sample 1 mL of the supernatant was injected into the sample-carrier cell and the particle count measured at 5 positions, with 2 cycles of reading per position. […] Mean concentration of EVs/mL (±SEM) was calculated from 4 replicates.

The subject of the next data set is Rat primary astrocytes. Briefly: Astrocyte activation, GFAP immunofluorescence (+/-) serum deprivation. As to conditions: 10 μM, 2 h. It counts as cell-based. As for the experimental part:
as §1, §2

Each structure is given as a SMILES string. Entries after “also recorded” stand apart in the source; their conditions may differ.

Usually IC50 stands for the concentration that gives 50% inhibition. Read a high IC50 as weaker potency. In general, amount remaining refers to the share of the starting amount still present when the sample was taken. Consider `COc1cc(-c2nc(-c3cccs3)c(-c3ccccc3)[nH]2)cc(OC)c1O` [DPTIP, 2,6-Dimethoxy-4-(5-Phenyl-4-Thiophen-2-yl-1H-Imidazol-2-yl)-Phenol], for which the IC50 against alkaline phosphatase and against acid sphingomyelinase was greater than 100 µM each time. In data set [1], the amount remaining at 1 h, 1 μM was 100%. Besides, in the data set with primary astrocytes, the “effect on EV release from primary astrocytes” value was “dose-dependently inhibited EV release; also recorded: inhibited EV release from astrocytes in a dose dependent manner”. Moreover, in the data set with Rat primary astrocytes (no serum starvation), the “effect on GFAP levels without serum starvation” value is “did not change GFAP levels”. Also, the “effect on astrocyte activation (GFAP) in response to serum starvation” value in the data set with Rat primary astrocytes (with serum deprivation) was “prevented astrocyte activation”.

Values taken from paper PMC6286365 (Scientific Reports, 2018).
